Earlier results as cited in patent publication US9101669B2, “Self-assembed conjugate and use thereof” (POSTECH ACADEMY-INDUSTRY FOUNDATION, priority 2012, dated 2015).

Details: 1 to 1 host-guest complex, protonated forms, aqueous solution

Row | Structure (SMILES) | binding constant
1 | NCCCCCCN [DAH, 1,6-diaminohexane] | up to 10^10 M^−1
2 | NCCCNCCCCNCCCN [SPM, spermine] | ≤ 10^12 M^−1
